In patent publication US7410963B2, “Benzo-1,4-diazepin-2-one derivatives as phosphodiesterase PDE2 inhibitors, preparation and therapeutic use thereof” (VIA Pharmaceuticals, Inc., priority 2003, dated 2008):
Read-outs that look alike come from different tables or passages of the source.

Molecular target: T1, PDE2 (Bos taurus, UniProt P14099)
T1 sequence (P14099 1-921): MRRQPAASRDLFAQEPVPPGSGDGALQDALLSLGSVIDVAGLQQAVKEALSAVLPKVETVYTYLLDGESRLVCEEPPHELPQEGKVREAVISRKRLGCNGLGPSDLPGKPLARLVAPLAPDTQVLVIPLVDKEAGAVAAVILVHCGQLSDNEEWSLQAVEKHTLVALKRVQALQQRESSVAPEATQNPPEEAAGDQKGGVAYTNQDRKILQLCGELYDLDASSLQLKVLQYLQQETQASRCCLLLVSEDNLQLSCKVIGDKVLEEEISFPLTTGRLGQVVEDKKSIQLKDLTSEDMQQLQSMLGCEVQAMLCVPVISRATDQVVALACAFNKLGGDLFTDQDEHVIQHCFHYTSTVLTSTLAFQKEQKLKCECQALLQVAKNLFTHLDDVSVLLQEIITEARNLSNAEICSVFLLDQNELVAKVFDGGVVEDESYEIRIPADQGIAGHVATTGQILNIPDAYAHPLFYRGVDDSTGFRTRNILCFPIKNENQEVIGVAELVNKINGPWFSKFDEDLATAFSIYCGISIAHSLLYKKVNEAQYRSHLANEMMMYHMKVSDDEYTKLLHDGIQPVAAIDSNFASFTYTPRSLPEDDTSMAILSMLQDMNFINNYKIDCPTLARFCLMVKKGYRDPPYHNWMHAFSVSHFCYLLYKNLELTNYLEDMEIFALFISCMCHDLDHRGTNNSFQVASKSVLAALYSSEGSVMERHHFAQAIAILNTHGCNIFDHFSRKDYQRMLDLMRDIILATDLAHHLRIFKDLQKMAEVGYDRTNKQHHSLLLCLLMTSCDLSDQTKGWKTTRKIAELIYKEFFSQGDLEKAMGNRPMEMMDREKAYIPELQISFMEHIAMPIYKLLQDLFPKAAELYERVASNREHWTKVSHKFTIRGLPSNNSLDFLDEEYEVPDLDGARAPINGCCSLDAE
Test: Radioenzymatic phosphodiesterase assay: PDE2 inhibition
Type: biochemical, bovine
Conditions: read-out: PDE2 percentage of inhibition at 10 μM
Experimental: Nucleoside radioactivity was determined by liquid scintillation.

CN1C(=O)CN=C(c2cccc(C#N)c2)c2cc(-c3ccccc3)c(Oc3ccccc3)cc21 [Example 69, 3-(1-Methyl-2-oxo-8-phenoxy-7-phenyl-2,3-dihydro-1H-benzo[e][1,4]diazepin-5-yl)-benzonitrile]
inhibition at 10 µM: 4%

COc1ccccc1-c1cc2c(cc1Oc1ccccc1)N(C)C(=O)CN=C2c1cccc(C#N)c1 [Example 70, 3-[7-(2-Methoxy-phenyl)-1-methyl-2-oxo-8-phenoxy-2,3-dihydro-1H-benzo[e][1,4]diazepin-5-yl]-benzonitrile]
inhibition at 10 µM: 95%

CN1C(=O)CN=C(c2cccc(C#N)c2)c2cc(-c3ccccc3Cl)c(Oc3ccccc3)cc21 [Example 71, 3-[7-(2-Chloro-phenyl)-1-methyl-2-oxo-8-phenoxy-2,3-dihydro-1H-benzo[e][1,4]diazepin-5-yl]-benzonitrile]
inhibition at 10 µM: 82%

CN1C(=O)CN=C(c2cccc(C(N)=O)c2)c2cc(-c3ccccc3)c(Oc3ccccc3)cc21 [Example 72, 3-(1-Methyl-2-oxo-8-phenoxy-7-phenyl-2,3-dihydro-1H-benzo[e][1,4]diazepin-5-yl)-benzamide]
inhibition at 10 µM: 28%

CN1C(=O)CN=C(c2cccc(C(N)=O)c2)c2cc(-c3ccccc3Cl)c(Oc3ccccc3)cc21 [Example 73, 3-[7-(2-Chloro-phenyl)-1-methyl-2-oxo-8-phenoxy-2,3-dihydro-1H-benzo[e][1,4]diazepin-5-yl]-benzamide]
inhibition at 10 µM: 96%

COc1ccccc1-c1cc2c(cc1Oc1ccccc1)N(C)C(=O)CN=C2c1cccc(C(N)=O)c1 [Example 74, 3-[7-(2-Methoxy-phenyl)-1-methyl-2-oxo-8-phenoxy-2,3-dihydro-1H-benzo[e][1,4]diazepin-5-yl]-benzamide]
inhibition at 10 µM (Table 1, 10 μM test compound): 98%

COc1ccc(C2=NCC(=O)Nc3cc(OC)c(-c4ccccc4)cc32)cc1 [Example 76, 5-(4-Methoxy-phenyl)-8-methoxy-7-phenyl-1,3-dihydro-benzo[e][1,4]diazepin-2-one]
inhibition at 10 µM (Table 1, 10 μM test compound): 91%

COc1cccc(OC)c1-c1ccc2c(c1)C(c1ccc(C)c([N+](=O)[O-])c1)=NCC(=O)N2C [Example 77, 7-(2,6-Dimethoxy-phenyl)-1-methyl-5-(4-methyl-3-nitro-phenyl)-1,3-dihydro-benzo[e][1,4]diazepin-2-one]
inhibition at 10 µM: 99%

COc1cc2c(cc1-c1ccccc1OC(C)C)C(c1cccc(C(N)=O)c1)=NCC(=O)N2C [Example 78, 3-[7-(2-Isopropoxy-phenyl)-8-methoxy-1-methyl-2-oxo-2,3-dihydro-1H-benzo[e][1,4]diazepin-5-yl]-benzamide]
inhibition at 10 µM: 97%

COc1cccc(C2=NCC(=O)N(C)c3ccc(-c4ccccc4)cc32)c1 [Example 79, 5-(3-Methoxy-phenyl)-1-methyl-7-phenyl-1,3-dihydro-benzo[e][1,4]diazepin-2-one]
inhibition at 10 µM (Table 1, 10 μM test compound): 84%

COc1ccc(Cl)cc1-c1ccc2c(c1)C(c1cccc(C#N)c1)=NCC(=O)N2C [Example 81, 3-[7-(5-Chloro,2-methoxy-phenyl)-1-methyl-2-oxo-2,3-dihydro-1H-benzo[e][1,4]diazepin-5-yl]-benzonitrile]
inhibition at 10 µM (Table 1, 10 μM test compound): 22%

COc1cccc(Cl)c1-c1ccc2c(c1)C(c1cccc(C#N)c1)=NCC(=O)N2C [Example 82, 3-[7-(2-Chloro,6-methoxy-phenyl)-1-methyl-2-oxo-2,3-dihydro-1H-benzo[e][1,4]diazepin-5-yl]-benzonitrile]
inhibition at 10 µM (Table 1, 10 μM test compound): 92%

N#Cc1cccc(C2=NCC(=O)Nc3cc(OC(F)(F)F)c(-c4ccccc4)cc32)c1 [Example 85, 3-(2-Oxo-7-phenyl-8-trifluoromethoxy-2,3-dihydro-1H-benzo[e][1,4]diazepin-5-yl)-benzonitrile]
inhibition at 10 µM: 70%

CN1C(=O)CN=C(c2cccc(C#N)c2)c2cc(-c3ccccc3)c(OC(F)(F)F)cc21 [Example 86, 3-(1-Methyl-2-oxo-7-phenyl-8-trifluoromethoxy-2,3-dihydro-1H-benzo[e][1,4]diazepin-5-yl)-benzonitrile]
inhibition at 10 µM: 85%

CN1C(=O)CN=C(c2cccc(C(N)=O)c2)c2cc(-c3ccccc3)c(OC(F)(F)F)cc21 [Example 87, 3-(1-Methyl-2-oxo-7-phenyl-8-trifluoromethoxy-2,3-dihydro-1H-benzo[e][1,4]diazepin-5-yl)-benzamide]
inhibition at 10 µM (Table 1, 10 μM test compound): 93%

CN1C(=O)CN=C(c2cccc(C#N)c2)c2cc(-c3ccccc3Oc3ccccc3)ccc21 [Example 88, 3-[1-Methyl-2-oxo-7-(2-phenoxy-phenyl)-2,3-dihydro-1H-benzo[e][1,4]diazepin-5-yl]-benzonitrile]
inhibition at 10 µM: 89%

COc1cc2c(cc1-c1c(OC)cccc1OC)C(c1cccc(C#N)c1)=NCC(=O)N2C [Example 89, 3-[7-(2,6-Dimethoxy-phenyl)-8-methoxy-1-methyl-2-oxo-2,3-dihydro-1H-benzo[e][1,4]diazepin-5-yl]-benzonitrile]
inhibition at 10 µM: 99%

COc1cc2c(cc1-c1ccccc1Oc1ccccc1)C(c1cccc(C#N)c1)=NCC(=O)N2C [Example 90, 3-[8-Methoxy-1-methyl-2-oxo-7-(2-phenoxy-phenyl)-2,3-dihydro-1H-benzo[e][1,4]diazepin-5-yl]-benzonitrile]
inhibition at 10 µM: 98%

CN1C(=O)CN=C(c2cccc(C(N)=O)c2)c2cc(-c3ccccc3Oc3ccccc3)ccc21 [Example 91, 3-[1-Methyl-2-oxo-7-(2-phenoxy-phenyl)-2,3-dihydro-1H-benzo[e][1,4]diazepin-5-yl]-benzamide]
inhibition at 10 µM (Table 1, 10 μM test compound): 96%

COc1cc2c(cc1-c1ccccc1)C(c1cccc(CCCCc3ccccc3)c1)=NCC(=O)N2C [Example 94, 8-Methoxy-1-methyl-7-phenyl-5-[3-(4-phenyl-butyl)-phenyl]-1,3-dihydro-benzo[e][1,4]diazepin-2-one]
inhibition at 10 µM: 79%

COCC#Cc1cccc(C2=NCC(=O)N(C)c3cc(OC)c(-c4ccccc4)cc32)c1 [Example 95, 8-Methoxy-5-[3-(3-methoxy-prop-1-ynyl)-phenyl]-1-methyl-7-phenyl-1,3-dihydro-benzo[e][1,4]diazepin-2-one]
inhibition at 10 µM: 89%

COc1cc2c(cc1-c1ccccc1)C(c1ccc(C#CCNC(=O)OC(C)(C)C)cc1)=NCC(=O)N2C [Example 96, {3-[4-(8-Methoxy-1-methyl-2-oxo-7-phenyl-2,3-dihydro-1H-benzo[e][1,4]diazepin-5-yl)-phenyl]-prop-2-ynyl}-carbamic acid tert-butyl ester]
inhibition at 10 µM: 21%

COc1cc2c(cc1-c1ccccc1)C(c1ccc(C#Cc3ccccc3)cc1)=NCC(=O)N2C [Example 97, 8-Methoxy-1-methyl-7-phenyl-5-(4-phenylethynyl-phenyl)-1,3-dihydro-benzo[e][1,4]diazepin-2-one]
inhibition at 10 µM: 45%

COCC#Cc1ccc(C2=NCC(=O)N(C)c3cc(OC)c(-c4ccccc4)cc32)cc1 [Example 98, 8-Methoxy-5-[4-(3-methoxy-prop-1-ynyl)-phenyl]-1-methyl-7-phenyl-1,3-dihydro-benzo[e][1,4]diazepin-2-one]
inhibition at 10 µM: 80%

COc1cccc(OC)c1-c1ccc2c(c1)C(c1ccc(Cl)c(Cl)c1)=NCC(=O)N2C [Example 99, 5-(3,4-Dichloro-phenyl)-7-(2,6-dimethoxy-phenyl)-1-methyl-1,3-dihydro-benzo[e][1,4]diazepin-2-one]
inhibition at 10 µM: 98%

COc1ccc(C2=NCC(=O)N(C)c3ccc(-c4c(OC)cccc4OC)cc32)cc1OC [Example 101, 5-(3,4-Dimethoxy-phenyl)-7-(2,6-dimethoxy-phenyl)-1-methyl-1,3-dihydro-benzo[e][1,4]diazepin-2-one]
inhibition at 10 µM: 99%

COc1cc2c(cc1-c1ccccc1)C(c1ccccc1Br)=NCC(=O)N2 [Example 102, 5-(2-Bromo-phenyl)-8-methoxy-7-phenyl-1,3-dihydro-benzo[e][1,4]diazepin-2-one]
inhibition at 10 µM (Table 1, 10 μM test compound): 48%

COCCCc1cccc(C2=NCC(=O)N(C)c3cc(OC)c(-c4ccccc4)cc32)c1 [Example 103, 8-Methoxy-5-[3-(3-methoxy-propyl)-phenyl]-1-methyl-7-phenyl-1,3-dihydro-benzo[e][1,4]diazepin-2-one]
inhibition at 10 µM (Table 1, 10 μM test compound): 96%

COc1cc2c(cc1-c1ccccc1)C(c1ccccc1Br)=NCC(=O)N2C [Example 104, 5-(2-Bromo-phenyl)-8-methoxy-1-methyl-7-phenyl-1,3-dihydro-benzo[e][1,4]diazepin-2-one]
inhibition at 10 µM (Table 1, 10 μM test compound): 71%

CCCCC#Cc1ccc(C2=NCC(=O)N(C)c3cc(OC)c(-c4ccccc4)cc32)cc1 [Example 105, 5-(4-Hex-1-ynyl-phenyl)-8-methoxy-1-methyl-7-phenyl-1,3-dihydro-benzo[e][1,4]diazepin-2-one]
inhibition at 10 µM: 42%
